Source: patent publication US10835456B2, “Propyl gallate-containing vitamin preparations” (BASF SE, priority 2016, dated 2020)
Values belong to the compound of their own block, whether it stands above or below them.

Legend:
[1] = Stress test: stability in premix mixture, stored at 40° C. and 70% humidity for 4 weeks, retention of vitamin content; type: physicochemical; details: for Retention Active ingredient content after 4-week premix test: Table 3c; for Retention Canthaxanthin after 4-week test: Table 5c
Protocol: The stress test for the vitamins is configured such that specimens of 100 mg in each case of the formulation produced and 4 g of premix mixture are weighed into glass vessels. The premix mixture consists of 50% by weight of fine lime (particle size <1000 μm), 20% by weight of wheat bran (particle size <1000 μm), 20% by weight of 50% silica-supported choline chloride (particle size <1000 μm) and 10% by weight of trace element mixture (particle size 100-500 μm). The trace element mixture is composed of 46.78% by weight of FeSO4x7H2O (100-500 μm), 37.43% by weight of CuSO4x5H2O (100-500 μm), 11.79% by weight of ZnO (<500 μm), 3.61% by weight of MnO and 0.39% by weight of CoCO3. After addition of all ingredients, the specimens are mixed cautiously, with performance of the mixing mechanically or else by hand, and these specimens (A) are stored in a climate-controlled chamber at 40° C. and 70% humidity for 4 weeks. […]
For this purpose, specimens each of 100 mg of the formulation produced and 4 g of premix mixture are weighed out in glass vessels (50 mL glass vials). The premix mixture consists of 50% by weight of fine lime (particle size <1000 μm), 20% by weight of wheat bran (particle size <1000 μm), 20% by weight of 50% silica-supported choline chloride (particle size <1000 μm) and 10% by weight of trace element mixture (particle size 100-500 μm), said trace element mixture consisting of 46.78% by weight of FeSO4x7H2O (100-500 μm), 37.43% by weight of CuSO4x5H2O (100-500 μm), 11.79% by weight of ZnO (<500 μm), 3.61% by weight of MnO and 0.39% by weight of CoCO3. After addition of all ingredients, the specimens are mixed cautiously, where the mixing can be performed mechanically or else by hand, and these specimens (A) are stored in a climate-controlled chamber at 40° C. and 70% humidity for 4 weeks. An identical test is conducted with a comparative sample (B) which is of identical composition but which comprises, rather than propyl gallate, the same amount of ethoxyquin. […] The ratio of the contents after (A2), (B2) and before the storage (A1) and (B1) are used here to calculate the retention (A2/A1) or (B2/B1) of the samples. For the formulations of the invention, a quotient (A2/A1):(B2/B1) of at least 0.75 is determined here. Preferably, for the formulations of the invention, a quotient of at least 1 is obtained.
The stability of the particles thus produced was tested in a stress test. For this purpose, specimens each of 100 mg of the particles produced and 4 g of premix mixture were weighed into 50 mL glass bottles. The premix mixture consisted of 50% by weight of fine lime (particle size <1000 μm), 20% by weight of wheat bran (particle size <1000 μm), 20% by weight of 50% silica-supported choline chloride (particle size <1000 μm) and 10% by weight of trace element mixture (particle size 100-500 μm), and the trace element mixture of 46.78% by weight of FeSO4x7H2O (100-500 μm), 37.43% by weight of CuSO4x5H2O (100-500 μm), 11.79% by weight of ZnO (<500 μm), 3.61% by weight of MnO and 0.39% by weight of CoCO3. After addition of all ingredients, the specimens were carefully mixed by hand. These specimens were stored in a climate-controlled chamber at 40° C. and 70% air humidity for 4 weeks. […]

[2] = Particle size after dissolution in water by photon correlation spectroscopy (Malvern Zetasizer Nano ZSP); type: physicochemical; details: dry powder of Example 3e, PCS
[3] = as above; type: physicochemical; details: dry powder with propyl gallate added to the dispersion (Examples 1, 3b, 3c, 3d), PCS
Protocol: The particle size is determined by means of a Malvern Zetasizer Nano ZSP.
30 g of citranaxanthin were suspended in 240 g of isopropanol together with 1.1 g of ascorbyl palmitate and, with setting of the pressure-limiting valve to 30 bar, mixed continuously with 390 g of isopropanol in a mixing chamber A. At a metering rate of 6 L/h on the suspension side and of 9 L/h on the solvent side, a mixing temperature of 170° C. was established in the mixing chamber A. After a residence time of 0.3 second, the molecularly disperse solution was mixed in mixing chamber B with a solution of 32 g of gelatin, 71.4 g of sucrose and 50 g of glucose syrup in 4000 g of water at a throughput rate of 100 L/h. After the solvent had been removed under reduced pressure in a distillation apparatus, an active ingredient dispersion was obtained, to which 8 g of sunflower oil and 8 g of propyl gallate were added. The propyl gallate was predissolved here in 200 mL of water and adjusted to pH 7 with NaOH. Subsequently, the dispersion was converted to a stable, water-soluble dry powder by spray drying. After dissolution in water, by photon correlation spectroscopy (PCS), a particle size of 386 nm (standard deviation 142.5, polydispersity index PDI 0.185, D(95): 660 nm) was measured (Malvern Zetasizer Nano ZSP).

[4] = impurity from ethoxyquin preparation remaining in animal feed; cited from earlier work

Retention Active ingredient content after 4-week premix test ([1]; propyl gallate 0% by wt., dispersion): 6.7%
Retention Active ingredient content after 4-week premix test ([1]; propyl gallate 2% by wt., dispersion): 13.83%
Retention Active ingredient content after 4-week premix test ([1]; propyl gallate 4% by wt., dispersion): 42.7%
Retention Active ingredient content after 4-week premix test ([1]; propyl gallate 6% by wt., dispersion): 57.7%
Retention Active ingredient content after 4-week premix test ([1]; propyl gallate 8% by wt., dispersion): 64.1%
Retention Active ingredient content after 4-week premix test ([1]; propyl gallate 10% by wt., dispersion): 58.5%
Retention Active ingredient content after 4-week premix test ([1]; propyl gallate 12% by wt., dispersion): 54.3%
Retention Active ingredient content after 4-week test ([1]; Table 3e, ethoxyquin 4% by wt., dispersion): 28.6%
Retention Active ingredient content after 4-week test ([1]; Table 3e, propyl gallate 4% by wt., dispersion): 33.4%
Retention Active ingredient content after 4-week test ([1]; Table 3e, propyl gallate 4% by wt., dispersion (pH adjustment before spraying from pH 8.5 to pH 6.8 with H2SO4)): 39.8%
Retention Active ingredient content after 4-week test ([1]; Table 3e, propyl gallate 6% by wt., dispersion): 44.4%
Retention Active ingredient content after 4-week test ([1]; Table 3e, propyl gallate 8% by wt., dispersion): 43.4%
Retention Active ingredient content after 4-week test ([1]; Table 4b, D,L-α tocopherol 4% by wt. (in active ingredient phase) + propyl gallate 4% by wt. (in protective colloid phase)): 29.2%
Retention Active ingredient content after 4-week test ([1]; Table 4b, mixed tocopherol 4% by wt. (in active ingredient phase) + propyl gallate 4% by wt. (in protective colloid phase)): 57.5%
Retention Canthaxanthin after 4-week test ([1]; propyl gallate 0% by wt., mixed tocopherol 4% by wt.): 11%
Retention Canthaxanthin after 4-week test ([1]; propyl gallate 4% by wt., mixed tocopherol 0% by wt.): 42.7%
Retention Canthaxanthin after 4-week test ([1]; propyl gallate 4% by wt., mixed tocopherol 4% by wt.): 61.7%
D(95) [2]: 683 nm
particle size [2]: 373 nm
polydispersity index PDI [2]: 0.203
particle size [3]: 280 nm
polydispersity index PDI [3]: 0.181
Compound: CCOC(=O)/C(C)=C/C=C/C(C)=C/C=C/C=C(C)/C=C/C=C(C)/C=C/C1=C(C)CCCC1(C)C [C30 ester]

Compound: CCOc1ccc(N)cc1 [p-phenetidine]
mutagenicity [4]: possibly a mutagen
